Data published in US20260317309A1, “N-HETEROCYLIC GPCR RECEPTOR AGONISTS, PHARMACEUTICAL COMPOSITIONS COMPRISING THE SAME, AND METHODS FOR THEIR USE” (Carmot Therapeutics, Inc., priority 2022, published 2026).

Biological target: T1, human GLP-1 receptor (Homo sapiens, UniProt P43220)
T1 construct: expressed in transfected cells
Test: GLP-1R cAMP assay (cAMP accumulation in CHO cells stably overexpressing the human GLP-1 receptor, HitHunter kit)
Format: cell-based
Conditions: CHO cells stably overexpressing human GLP-1R, 30 min, 20-point dose response in triplicate
Description: CAMP accumulation was measured in Chinese hamster ovary (CHO) cells (10,000 cells/well) stably overexpressing the human GLP-1 receptor using the HitHunter CAMP Assay for Small Molecules Kit (Eurofins). Briefly, cells were grown in Ham's F12 Nutrient Mix with 10% FBS, and lifted with Cell Dissociation Buffer, Enzyme free, PBS based (ThermoFisher). Cells were pelleted, and resuspended in Hank's buffered saline solution with 10 mM HEPES, and 625 μM 3-isobutyl-1-methylxanthine. The anti-cAMP antibody reagent was then added to cells at a 1:2 ratio and 5 μL of mixture was seeded in 384-well small volume white assay plates, at 10,000 cells/well. Cells were then treated with 50 nL compound using an ECHO 550 acoustic dispenser (Labcyte) in a 20-point dose response format in triplicate for 30 min. Cells were then lysed, and detection reagents added according to the manufacturer's protocol. After overnight incubation, luminescence was measured using a Perkin Elmer Envision plate reader. Dose response curves were analyzed using GraphPad Prism 9.0.
In the Table, EC50 values are designated as follows: • A: 0 nM<EC50<0.1 nM; • B: 0.1 nM≤EC50<1.0 nM; • C: 1.0 nM≤EC50<10.0 nM; • D: 10.0 nM≤EC50<100 nM; • E: 100 nM≤EC50<500 nM; and • F: ≥500 nM

T1 sequence (P43220 24-463): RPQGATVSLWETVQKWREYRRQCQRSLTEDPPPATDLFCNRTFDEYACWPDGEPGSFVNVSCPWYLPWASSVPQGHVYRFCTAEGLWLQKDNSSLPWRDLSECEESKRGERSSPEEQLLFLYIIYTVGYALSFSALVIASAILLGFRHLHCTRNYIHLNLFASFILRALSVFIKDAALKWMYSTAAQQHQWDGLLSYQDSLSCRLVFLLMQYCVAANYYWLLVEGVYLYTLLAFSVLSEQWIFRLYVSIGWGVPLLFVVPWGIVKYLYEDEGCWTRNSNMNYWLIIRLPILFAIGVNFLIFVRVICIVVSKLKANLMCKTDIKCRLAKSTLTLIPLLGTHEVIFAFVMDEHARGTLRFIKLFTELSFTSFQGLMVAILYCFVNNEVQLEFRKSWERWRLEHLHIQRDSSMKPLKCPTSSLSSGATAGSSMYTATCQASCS

Compound	EC50
C[C@H]1C[C@@H](Oc2ccnc(COc3ncc(C#N)cc3F)c2)CCN1Cc1nc2c(F)cc(C(=O)O)cc2n1C[C@@H]1CCO1 [Compound 625, 2-(((2S,4S)-4-((2-(((5-Cyano-3-fluoropyridin-2-yl)oxy)methyl)pyridin-4-yl)oxy)-2-methylpiperidin-1-yl)methyl)-4-fluoro-1-(((S)-oxetan-2-yl)methyl)-1H-benzo[d]imidazole-6-carboxylic acid]	1 to 10 nM
C[C@H]1C[C@@H](Oc2ccnc(COc3ncc(F)cc3F)n2)CCN1Cc1nc2ccc(C(=O)O)cc2n1C[C@@H]1CCO1 [Compound 566, 2-{[(2S,4S)-4-[(2-{[(3,5-Difluoropyridin-2-yl)oxy]methyl}pyrimidin-4-yl)oxy]-2-methylpiperidin-1-yl]methyl}-1-{[(2S)-oxetan-2-yl]methyl}-1H-1,3-benzodiazole-6-carboxylic acid]	0.1 to 1 nM
C[C@H]1C[C@@H](Oc2ccnc(NCc3ccc(F)cc3F)n2)CCN1Cc1nc2ccc(C(=O)O)cc2n1C[C@@H]1CCO1 [Compound 614, 2-(((2S,4S)-4-((2-((2,4-Difluorobenzyl)amino)pyrimidin-4-yl)oxy)-2-methylpiperidin-1-yl)methyl)-1-(((S)-oxetan-2-yl)methyl)-1H-benzo[d]imidazole-6-carboxylic acid]	0.1 to 1 nM
C[C@H]1C[C@@H](Oc2ccnc(COc3ccc(C#N)cc3F)n2)CCN1Cc1nc2ccc(C(=O)O)cc2n1C[C@@H]1CCCO1 [Compound 579, 2-{[(2S,4S)-4-({2-[(4-cyano-2-fluorophenoxy)methyl]pyrimidin-4-yl}oxy)-2-methylpiperidin-1-yl]methyl}-1-{[(2S)-oxolan-2-yl]methyl}-1H-1,3-benzodiazole-6-carboxylic acid]	0.1 to 1 nM
COC1(Cn2c(CN3CC[C@H](Oc4ccnc(COc5ccc(F)cc5F)n4)C[C@@H]3C)nc3ccc(C(=O)O)cc32)CCC1 [Compound 600, 2-{[(2S,4S)-4-({2-[(2,4-Difluorophenoxy)methyl]pyrimidin-4-yl}oxy)-2-methylpiperidin-1-yl]methyl}-1-[(1-methoxycyclobutyl)methyl]-1H-1,3-benzodiazole-6-carboxylic acid]	0.1 to 1 nM
CC[C@@H]1C[C@H](Oc2ccnc(COc3ccc(C#N)cc3F)n2)CCN1Cc1nc2ccc(C(=O)O)cc2n1C[C@@H]1CCO1 [Compound 586, 2-{[(2R,4R)-4-({2-[(4-Cyano-2-fluorophenoxy)methyl]pyrimidin-4-yl}oxy)-2-ethylpiperidin-1-yl]methyl}-1-{[(2S)-oxetan-2-yl]methyl}-1H-1,3-benzodiazole-6-carboxylic acid]	1 to 10 nM
C[C@H]1C[C@@H](Oc2ccnc(COc3ncc(F)cc3F)c2)CCN1Cc1nc2c(F)cc(C(=O)O)cc2n1C[C@@H]1CCO1 [Compound 619, 2-(((2S,4S)-4-((2-(((3,5-Difluoropyridin-2-yl)oxy)methyl)pyridin-4-yl)oxy)-2-methylpiperidin-1-yl)methyl)-4-fluoro-1-(((S)-oxetan-2-yl)methyl)-1H-benzo[d]imidazole-6-carboxylic acid]	1 to 10 nM
C[C@H](Cn1c(CN2CC[C@H](Oc3ccnc(COc4ncc(C#N)cc4F)n3)C[C@@H]2C)nc2ccc(C(=O)O)cc21)OC(F)F [Compound 626, 2-(((2S,4S)-4-((2-(((5-cyano-3-fluoropyridin-2-yl)oxy)methyl)pyrimidin-4-yl)oxy)-2-methylpiperidin-1-yl)methyl)-1-((R)-2-(difluoromethoxy)propyl)-1H-benzo[d]imidazole-6-carboxylic acid]	0.1 to 1 nM
N#Cc1cnc(OCc2nccc(OC3CCN(Cc4nc5c(F)cc(C(=O)O)cc5n4C[C@@H]4CCO4)CC3)n2)c(F)c1 [Compound 634]	0.1 to 1 nM
C[C@H]1C[C@@H](Oc2ccnc(COc3ccc(F)cc3F)n2)CCN1Cc1nc2ccc(C(=O)O)cc2n1C[C@@H]1CCCO1 [Compound 589, 2-{[(2S,4S)-4-({2-[(2,4-Difluorophenoxy)methyl]pyrimidin-4-yl}oxy)-2-methylpiperidin-1-yl]methyl}-1-{[(2S)-oxolan-2-yl]methyl}-1H-1,3-benzodiazole-6-carboxylic acid]	0.1 to 1 nM
CC(c1nc2ccc(C(=O)O)cc2n1C[C@@H]1CCO1)N1CC[C@H](Oc2ccnc(COc3ccc(F)cc3F)n2)C[C@@H]1C (mixture of isomers) [Compound 568, 2-{1-[(2S,4S)-4-({2-[(2,4-difluorophenoxy)methyl]pyrimidin-4-yl}oxy)-2-methylpiperidin-1-yl]ethyl}-1-{[(2S)-oxetan-2-yl]methyl}-1H-1,3-benzodiazole-6-carboxylic acid]	0.1 to 1 nM
C[C@H](Cn1c(CN2CC[C@H](Oc3ccnc(COc4ncc(F)cc4C#N)n3)C[C@@H]2C)nc2ccc(C(=O)O)cc21)OC(F)F [Compound 627, 2-(((2S,4S)-4-((2-(((3-Cyano-5-fluoropyridin-2-yl)oxy)methyl)pyrimidin-4-yl)oxy)-2-methylpiperidin-1-yl)methyl)-1-((R)-2-(difluoromethoxy)propyl)-1H-benzo[d]imidazole-6-carboxylic acid]	0.1 to 1 nM
C[C@H](Cn1c(CN2CC[C@H](Oc3ccnc(COc4ncc(Cl)cc4F)n3)C[C@@H]2C)nc2ccc(C(=O)O)cc21)OC(F)F [Compound 602, 2-{[(2S,4S)-4-[(2-{[(5-Chloro-3-fluoropyridin-2-yl)oxy]methyl}pyrimidin-4-yl)oxy]-2-methylpiperidin-1-yl]methyl}-1-[(2R)-2-(difluoromethoxy)propyl]-1H-1,3-benzodiazole-6-carboxylic acid]	0.1 to 1 nM
C[C@@H](Cn1c(CN2CC[C@H](Oc3ccnc(COc4ccc(F)cc4F)n3)C[C@@H]2C)nc2ccc(C(=O)O)cc21)OCC(F)(F)F [Compound 598, 2-{[(2S,4S)-4-({2-[(2,4-Difluorophenoxy)methyl]pyrimidin-4-yl}oxy)-2-methylpiperidin-1-yl]methyl}-1-[(2S)-2-(2,2,2-trifluoroethoxy)propyl]-1H-1,3-benzodiazole-6-carboxylic acid]	0.1 to 1 nM

Now from value to compound:

EC50	Compound
0.1 to 1 nM	C[C@H]1C[C@@H](Oc2ccnc(COc3ncc(C#N)cc3F)n2)CCN1Cc1nc2c(F)cc(C(=O)O)cc2n1CCOCC(F)(F)F [Compound 636, 2-(((2S,4S)-4-((2-(((5-cyano-3-fluoropyridin-2-yl)oxy)methyl)pyrimidin-4-yl)oxy)-2-methylpiperidin-1-yl)methyl)-4-fluoro-1-(2-(2,2,2-trifluoroethoxy)ethyl)-1H-benzo[d]imidazole-6-carboxylic acid]
0.1 to 1 nM	C[C@H]1C[C@@H](Oc2ccnc(COc3ccc(F)cc3F)n2)CCN1Cc1nc2ccc(C(=O)NO)cc2n1C[C@@H]1CCO1 [Compound 559, 2-(((2S,4S)-4-((2-((2,4-Difluorophenoxy)methyl)pyrimidin-4-yl)oxy)-2-methylpiperidin-1-yl)methyl)-N-hydroxy-1-(((S)-oxetan-2-yl)methyl)-1H-benzo[d]imidazole-6-carboxamide]
< 0.1 nM	C[C@H](Cn1c(CN2CC[C@H](Oc3ccnc(COc4ccc(F)cc4F)n3)C[C@@H]2C)nc2ccc(C(=O)O)cc21)OC(F)F [Compound 592, 1-[(2R)-2-(Difluoromethoxy)propyl]-2-{[(2S,4S)-4-({2-[(2,4-difluorophenoxy)methyl]pyrimidin-4-yl}oxy)-2-methylpiperidin-1-yl]methyl}-1H-1,3-benzodiazole-6-carboxylic acid]
< 0.1 nM	C[C@H](Cn1c(CN2CC[C@H](Oc3ccnc(COc4ncc(F)cc4F)n3)C[C@@H]2C)nc2ccc(C(=O)O)cc21)OC(F)F [Compound 617, 1-((R)-2-(Difluoromethoxy)propyl)-2-(((2S,4S)-4-((2-(((3,5-difluoropyridin-2-yl)oxy)methyl)pyrimidin-4-yl)oxy)-2-methylpiperidin-1-yl)methyl)-1H-benzo[d]imidazole-6-carboxylic acid]
< 0.1 nM	C[C@H]1C[C@@H](Oc2ccnc(COc3ccc(Cl)cn3)n2)CCN1Cc1nc2c(F)cc(C(=O)O)cc2n1C[C@@H]1CCO1 [Compound 603, 2-{[(2S,4S)-4-[(2-{[(5-Chloropyridin-2-yl)oxy]methyl}pyrimidin-4-yl)oxy]-2-methylpiperidin-1-yl]methyl}-4-fluoro-1-{[(2S)-oxetan-2-yl]methyl}-1H-1,3-benzodiazole-6-carboxylic acid]
< 0.1 nM	C[C@H]1C[C@@H](Oc2ccnc(COc3ccc(F)cc3F)n2)CCN1Cc1nc2ccc(C(=O)O)cc2n1CCOCC(F)(F)F [Compound 588, 2-{[(2S,4S)-4-({2-[(2,4-Difluorophenoxy)methyl]pyrimidin-4-yl}oxy)-2-methylpiperidin-1-yl]methyl}-1-[2-(2,2,2-trifluoroethoxy)ethyl]-1H-1,3-benzodiazole-6-carboxylic acid]
< 0.1 nM	C[C@H]1C[C@@H](Oc2nc(COc3ccc(F)cc3F)ncc2F)CCN1Cc1nc2ccc(C(=O)O)cc2n1C[C@@H]1CCO1 [Compound 581, 2-{[(2S,4S)-4-({2-[(2,4-difluorophenoxy)methyl]-5-fluoropyrimidin-4-yl}oxy)-2-methylpiperidin-1-yl]methyl}-1-{[(2S)-oxetan-2-yl]methyl}-1H-1,3-benzodiazole-6-carboxylic acid]
